Experimental findings from patent US20220125885A1, “GLUCAGON ANALOG AGONISTS AND METHODS OF USING THE SAME” (Eli Lilly and Company, priority 2019, published 2022) are described below.

Where a SMILES comes first, the peptide text is derived from it. Where no end group is shown, it is not given here. [ ]: non-standard residue; d: D form. 4Pal = N[C@@H](Cc1ccncc1)C(=O)O; Dab = NCC[C@H](N)C(=O)O; Aib = CC(C)(N)C(=O)O Where only a bound is given, the exact number is not on record here.

The target of data set [1] is T1, human GIP receptor (hGIP-R) (Homo sapiens, UniProt P48546).
T1 construct: expressed in transfected cells; host or cells: HEK-293 clonal cell line
T1 sequence (P48546 22-466): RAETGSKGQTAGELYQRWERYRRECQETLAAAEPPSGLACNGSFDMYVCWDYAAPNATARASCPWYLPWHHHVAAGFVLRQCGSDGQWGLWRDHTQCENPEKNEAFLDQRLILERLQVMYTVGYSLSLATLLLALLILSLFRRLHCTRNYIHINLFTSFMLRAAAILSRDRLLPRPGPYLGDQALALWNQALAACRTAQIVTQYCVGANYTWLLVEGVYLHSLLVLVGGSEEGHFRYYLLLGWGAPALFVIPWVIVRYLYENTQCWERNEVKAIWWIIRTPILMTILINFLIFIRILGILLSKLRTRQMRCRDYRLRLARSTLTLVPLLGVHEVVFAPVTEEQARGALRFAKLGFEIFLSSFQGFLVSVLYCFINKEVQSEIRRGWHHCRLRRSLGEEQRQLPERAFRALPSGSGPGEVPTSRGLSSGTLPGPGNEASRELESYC
Briefly: cAMP functional activity assay, hGIP-R HEK-293 cells. The class given is cell-based. To be noted: for Emax at 9.95 µM: HEK293, percent of response to 10 nM GIP(1-42)NH2, Examples at 9.95 μM, read-out: Emax hGIPR; for EC50: in the presence of FBS and BSA, read-out: cAMP EC50 hGIPR. How it is done: (§1) After a sixty-minute incubation at room temperature, the resulting increase in intracellular cAMP is quantitatively determined using a cAMP Dynamic 2 HTRF Assay Kit (62AM4PEJ; CisBio; Codolet, FR). Briefly, cAMP levels within the cell are detected by adding a cAMP-d2 conjugate in cell lysis buffer (10 μl) followed by an anti-cAMP-Eu3+-Cryptate antibody, also in cell lysis buffer (10 μl). […] A relative EC50 value and percent top (Emax) are derived by non-linear regression analysis using the percent maximal response vs. the concentration of peptide added, fitted to a four-parameter logistic equation.

The target of data set [2] is T2, human GLP-1 receptor (hGLP-1R) (Homo sapiens, UniProt P43220).
T2 construct: expressed in transfected cells; host or cells: HEK-293 clonal cell line
The data set can be described thus: cAMP functional activity assay, hGLP-1R HEK-293 cells. Type of data set: cell-based. The settings on record: HEK293; percent of response to 10 nM GLP-1(7-36)NH2; mean ± SEM.

In data set [3] the test system is CD8+ T cell-depleted peripheral blood mononuclear cells (CD4+ T cells). The data set can be described thus: CD4+ T cell assay (immunogenicity). The class given is cell-based, human. The settings on record: Cell Division Index; positive donors only. How it is done:
1. CD4+ T Cell Assay: to assess the propensity for a clinical immunogenic response to the G compounds of Examples 1-4, CD8+ T cell-depleted peripheral blood mononuclear cells (PBMC's) are prepared and labeled with carboxyfluorescein diacetate succinimidyl ester (CFSE; Invitrogen) from a cohort of 10 healthy donors with diverse human leukocyte antigen (HLA) class II haplotypes. Each donor is tested in triplicate with 2.0 mL media control, keyhole limpet haemocyanin (KLH; 0.33 μM), and the compounds of Examples 1-4 (10 μM). Cultures are incubated for 7 days at 37° C. with 5% CO2. On day 7, samples are analyzed by flow cytometry using a BD LSR II Fortessa (Becton Dickinson; Franklin Lakes, N.J.), equipped with a high throughput sampler (HTS). Data is analyzed using FlowJo® Software (FlowJo, LLC/TreeStar; Ashland, Oreg.).
Protein therapeutics that induce less than 30% positive response in the CD4+ T cell proliferation assay are associated with a low risk of immunogenicity.

The nature of the next data set: in vivo. To be noted: male, Yucatan miniature swine, pig, sc, 10 ug/kg. How it is done:
1. […] The compounds and an analog as an internal standard are extracted from […] by antibody or protein precipitations. The intact mass of the compounds are detected by a Q Exactive® Orbitrap® Mass Spectrometer (Thermo Fisher Scientific; Waltham, Mass.). 2. […] Blood is collected at pre-dose, 2, 5, 10, 15, 20, 25, 30, 45, 60, 75, 90, 120 and 150 minutes post-dose, and plasma is obtained for pharmacokinetic characterization. […] Blood is collected at pre-dose, 2, 5, 10, 15, 20, 25, 30, 45, 60, 75, 90, 120 and 150 minutes postdose, and plasma is obtained for pharmacokinetic characterization.

The target in another data set is T3, hGCGR (Homo sapiens, UniProt P47871).
T3 construct: expressed in transfected cells; host or cells: HEK-293 clonal cell line
Briefly: cAMP functional activity assay, hGCGR HEK-293 cells. Type of data set: cell-based. The settings on record: HEK293; percent of response to 1 nM Glucagon; mean ± SEM. How it is done: as §1

Another data set addresses T4, human GLP-2 receptor (human, UniProt O95838 1-553).
T4 sequence (looked up): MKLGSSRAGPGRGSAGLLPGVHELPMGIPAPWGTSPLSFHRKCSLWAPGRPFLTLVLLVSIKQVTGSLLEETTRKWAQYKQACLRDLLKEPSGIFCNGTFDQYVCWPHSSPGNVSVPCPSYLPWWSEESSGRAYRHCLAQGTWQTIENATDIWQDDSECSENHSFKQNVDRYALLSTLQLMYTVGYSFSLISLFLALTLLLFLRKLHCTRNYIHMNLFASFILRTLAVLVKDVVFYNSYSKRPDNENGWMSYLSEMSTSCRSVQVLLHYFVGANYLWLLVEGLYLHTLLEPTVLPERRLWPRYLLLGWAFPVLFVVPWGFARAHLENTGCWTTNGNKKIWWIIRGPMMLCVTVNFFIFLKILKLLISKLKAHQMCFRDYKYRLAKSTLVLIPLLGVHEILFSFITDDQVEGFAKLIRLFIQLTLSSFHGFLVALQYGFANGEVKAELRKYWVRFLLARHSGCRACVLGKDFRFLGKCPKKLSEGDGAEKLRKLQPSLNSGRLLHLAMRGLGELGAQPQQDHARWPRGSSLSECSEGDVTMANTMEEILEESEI
The data set can be described thus: cell-based or functional assay.

T2 sequence (P43220 24-463): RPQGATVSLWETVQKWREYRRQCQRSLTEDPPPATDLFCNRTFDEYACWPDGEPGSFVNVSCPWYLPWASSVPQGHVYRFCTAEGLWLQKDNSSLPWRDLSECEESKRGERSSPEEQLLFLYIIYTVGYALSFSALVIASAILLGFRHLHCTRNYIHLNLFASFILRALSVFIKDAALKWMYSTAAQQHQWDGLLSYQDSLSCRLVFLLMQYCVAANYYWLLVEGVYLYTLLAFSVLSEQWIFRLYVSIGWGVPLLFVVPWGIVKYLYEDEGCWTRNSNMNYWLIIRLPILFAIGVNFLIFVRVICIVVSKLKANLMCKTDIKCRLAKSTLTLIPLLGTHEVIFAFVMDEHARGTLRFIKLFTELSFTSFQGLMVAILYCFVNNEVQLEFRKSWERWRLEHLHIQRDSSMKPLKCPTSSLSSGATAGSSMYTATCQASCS
T3 sequence (P47871 26-477): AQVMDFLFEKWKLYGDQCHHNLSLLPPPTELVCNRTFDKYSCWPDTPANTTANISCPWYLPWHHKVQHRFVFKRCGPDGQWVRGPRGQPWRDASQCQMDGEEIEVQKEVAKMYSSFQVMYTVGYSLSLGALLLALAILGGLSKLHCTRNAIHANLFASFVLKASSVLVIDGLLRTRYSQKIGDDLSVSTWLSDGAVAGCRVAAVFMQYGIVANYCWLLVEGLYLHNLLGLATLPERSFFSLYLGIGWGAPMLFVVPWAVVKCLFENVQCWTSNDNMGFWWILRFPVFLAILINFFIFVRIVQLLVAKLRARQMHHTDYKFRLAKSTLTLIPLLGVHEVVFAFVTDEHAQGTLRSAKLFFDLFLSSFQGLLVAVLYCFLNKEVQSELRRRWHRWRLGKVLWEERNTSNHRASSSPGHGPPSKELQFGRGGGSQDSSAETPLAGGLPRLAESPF

As to `CC(=O)NCC[C@H](NC(=O)[C@H](CO)NC(=O)[C@@H](N)Cc1c[nH]cn1)C(=O)NCC(=O)N[C@H](C(=O)N[C@@H](Cc1ccccc1)C(=O)N[C@H](C(=O)N[C@@H](CO)C(=O)N[C@@H](CC(=O)O)C(=O)N[C@@H](Cc1ccc(O)cc1)C(=O)N[C@@H](CO)C(=O)N[C@@H](CCCCN)C(=O)N[C@@H](Cc1ccc(O)cc1)C(=O)N[C@@H](CC(C)C)C(=O)N[C@@H](CC(=O)O)C(=O)NC(C)(C)C(=O)N[C@@H](CCCNC(=N)N)C(=O)N[C@@H](CCCNC(=N)N)C(=O)N[C@@H](C)C(=O)N[C@@H](CCC(N)=O)C(=O)N[C@@H](C)C(=O)N[C@@H](Cc1ccccc1)C(=O)N[C@H](C(=O)N[C@@H](CCCCN)C(=O)N[C@@H](Cc1ccncc1)C(=O)N[C@@H](CC(C)C)C(=O)N[C@@H](CC(C)C)C(=O)N[C@@H](CO)C(=O)N[C@H](C(=O)O)[C@@H](C)O)C(C)C)[C@@H](C)O)[C@@H](C)O` [Example 3], in data set [1], the Emax at 9.95 µM is under 5% and the EC50 is over 9.95 µM. The maximum response (Emax) in data set [2] worked out at 109 ± 5%. In data set [3], the “Median Response Strength in positive donors (CDI)” value amounted to 6.5. Further, the concentration in “in vivo” (Cmax) peaked (Cmax) at 1.8 ng/mL. Besides, the half-life in the data set “in vivo” (T1/2) is 26.8 min.

As for `CC(C)C[C@H](NC(=O)[C@H](Cc1ccncc1)NC(=O)[C@H](CCCCN)NC(=O)[C@@H](NC(=O)[C@H](Cc1ccccc1)NC(=O)[C@H](CCC(N)=O)NC(=O)[C@H](CCC(N)=O)NC(=O)[C@H](C)NC(=O)[C@H](CCCNC(=N)N)NC(=O)[C@H](CCCNC(=N)N)NC(=O)C(C)(C)NC(=O)[C@H](CC(=O)O)NC(=O)[C@H](CC(C)C)NC(=O)[C@H](Cc1ccc(O)cc1)NC(=O)[C@H](CCCCN)NC(=O)[C@H](CO)NC(=O)[C@H](Cc1ccc(O)cc1)NC(=O)[C@H](CC(=O)O)NC(=O)[C@H](CO)NC(=O)[C@@H](NC(=O)[C@H](Cc1ccccc1)NC(=O)[C@@H](NC(=O)CNC(=O)[C@H](CCC(N)=O)NC(=O)[C@H](CO)NC(=O)[C@@H](N)Cc1c[nH]cn1)[C@@H](C)O)[C@@H](C)O)C(C)C)C(=O)N[C@@H](CC(C)C)C(=O)N[C@@H](CO)C(=O)N[C@H](C(=O)O)[C@@H](C)O` [Example 1] (H-HSQGTFTSDYSKYLD[Aib]RRAQQFVK[4Pal]LLST-OH; N-terminus assumed), the Emax on hGCGR worked out at 103 ± 2%; in data set [2], 105 ± 2%. For the same molecule, the maximal effect (Emax) at 9.95 µM in data set [1] is under 5%. Moreover, the EC50 in data set [1] is over 9.95 µM. Besides, the Tmax in the data set “in vivo” is 20 min.

Molecule `CC(=O)NCC[C@H](NC(=O)[C@H](CO)NC(=O)[C@@H](N)Cc1c[nH]cn1)C(=O)NCC(=O)N[C@H](C(=O)N[C@@H](Cc1ccccc1)C(=O)N[C@H](C(=O)N[C@@H](CO)C(=O)N[C@@H](CC(=O)O)C(=O)N[C@@H](Cc1ccc(O)cc1)C(=O)N[C@@H](CO)C(=O)N[C@@H](CCCCN)C(=O)N[C@@H](Cc1ccc(O)cc1)C(=O)N[C@@H](CC(C)C)C(=O)N[C@@H](CC(=O)O)C(=O)NC(C)(C)C(=O)N[C@@H](CCCNC(=N)N)C(=O)N[C@@H](CCCNC(=N)N)C(=O)N[C@@H](C)C(=O)N[C@@H](CCC(N)=O)C(=O)N[C@@H](CCC(N)=O)C(=O)N[C@@H](Cc1ccccc1)C(=O)N[C@H](C(=O)N[C@@H](CCCCN)C(=O)N[C@@H](Cc1ccncc1)C(=O)N[C@@H](CC(C)C)C(=O)N[C@@H](CC(C)C)C(=O)N[C@@H](CO)C(=O)N[C@H](C(=O)O)[C@@H](C)O)C(C)C)[C@@H](C)O)[C@@H](C)O` [Example 4] (H-HS[Dab](Ac)GTFTSDYSKYLD[Aib]RRAQQFVK[4Pal]LLST-OH; N-terminus assumed) returned an Emax on hGCGR of 98 ± 2%. Further, in data set [1], the Emax at 9.95 µM was under 5% and the EC50 is over 9.95 µM. For the same molecule, the Emax in data set [2] worked out at 100 ± 5%. Further, the “Median Response Strength in positive donors (CDI)” value in data set [3] is given as 6.42. For the same molecule, in “in vivo”, the Tmax was 25 min.

As for HADGSFSDEMNTILDNLAARDFINWLIQTKITDR-OH [GLP-2 (1-34) acid], the “cAMP EC50” value with human GLP-2 receptor was 0.016 nM.
